In ChEMBL document CHEMBL4699655, “Optimization of the In Vivo Potency of Pyrazolopyrimidine MALT1 Protease Inhibitors by Reducing Metabolism and Increasing Potency in Whole Blood” (J Med Chem, 2020):
pIC50: −log10 of the molar value.

What was measured:
[1] = Intrinsic clearance in rat liver microsomes; assay type: ADME, Microsome; conditions: read-out: CLH
[2] = Protein binding in human plasma; assay type: ADME, cell-free; conditions: read-out: PPB (converted)
[3] = Intrinsic clearance in human liver microsomes; assay type: ADME, Microsome; conditions: read-out: CLH
[4] = Protein binding in rat plasma; assay type: ADME, cell-free; conditions: read-out: PPB (converted)
[5] = Lipophilicity, logP of the compound; conditions: octanol/water
[6] = Intrinsic clearance in mouse liver microsomes; assay type: ADME, Microsome; conditions: read-out: CLH
[7] = target: T1, Mucosa-associated lymphoid tissue lymphoma translocation protein 1 (Homo sapiens, UniProt Q9UDY8); test: Inhibition of MALT1 (unknown origin) using Ac-Trp-Leu-Arg-Ser-Arg^Cys(PT14)-NH2 as substrate preincubated for 60 mins followed by substrate addition and measured after 60 mins by fluorescence assay
T1 sequence (Q9UDY8 whole entry): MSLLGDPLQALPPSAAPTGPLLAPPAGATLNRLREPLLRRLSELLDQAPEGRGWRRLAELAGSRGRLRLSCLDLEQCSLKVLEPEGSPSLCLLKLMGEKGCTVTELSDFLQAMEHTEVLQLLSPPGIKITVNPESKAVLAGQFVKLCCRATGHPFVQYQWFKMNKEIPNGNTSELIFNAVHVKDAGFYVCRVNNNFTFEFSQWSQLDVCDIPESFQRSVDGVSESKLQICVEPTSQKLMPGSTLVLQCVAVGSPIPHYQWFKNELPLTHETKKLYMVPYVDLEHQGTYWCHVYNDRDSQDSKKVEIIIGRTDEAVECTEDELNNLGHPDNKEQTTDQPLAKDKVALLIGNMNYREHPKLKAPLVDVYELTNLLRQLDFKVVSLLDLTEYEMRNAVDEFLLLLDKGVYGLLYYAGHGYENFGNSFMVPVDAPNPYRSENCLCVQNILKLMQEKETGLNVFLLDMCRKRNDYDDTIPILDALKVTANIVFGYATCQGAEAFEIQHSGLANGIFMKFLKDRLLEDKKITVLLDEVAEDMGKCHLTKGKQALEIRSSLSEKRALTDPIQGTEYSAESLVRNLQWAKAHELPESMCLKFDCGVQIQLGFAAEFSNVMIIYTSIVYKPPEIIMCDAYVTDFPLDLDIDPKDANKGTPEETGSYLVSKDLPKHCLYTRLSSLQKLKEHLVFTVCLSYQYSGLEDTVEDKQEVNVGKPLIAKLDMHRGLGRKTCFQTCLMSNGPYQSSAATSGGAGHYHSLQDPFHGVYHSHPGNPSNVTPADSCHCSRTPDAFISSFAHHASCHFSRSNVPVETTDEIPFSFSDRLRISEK

Rattus norvegicus [8] = test: Anti-autoimmune disease activity in OFA rat model of T-cell dependent B cell response assessed as reduction in SRBC-induced IgM producing B cells at 10 mg/kg, po BID for 4 days starting 2 days prior to immunization by ex vivo plaque forming assay relative to control; conditions: 96 h, read-out: INH
[9] = Cmax in blood of OFA rat model of T-cell dependent B cell response at 10 mg/kg, po BID for 4 days starting 2 days prior to immunization and measured after 14 hrs; assay type: ADME, organism-based; parameters: route oral, time 4 day, dose 10 mg/kg
Rattus norvegicus [10] = test: Anti-autoimmune disease activity in OFA rat model of T-cell dependent B cell response assessed as reduction in SRBC-induced IgM producing B cells at 3 mg/kg, po BID for 4 days starting 2 days prior to immunization by ex vivo plaque forming assay relative to control; conditions: 96 h, read-out: INH
[11] = Cmax in blood of OFA rat model of T-cell dependent B cell response at 3 mg/kg, po BID for 4 days starting 2 days prior to immunization and measured after 14 hrs; assay type: ADME, organism-based; parameters: route oral, dose 3 mg/kg, time 4 day
Rattus norvegicus [12] = test: Anti-autoimmune disease activity in OFA rat model of T-cell dependent B cell response assessed as reduction in SRBC-induced IgM producing B cells dosed orally twice daily for 4 days starting 2 days prior to immunization by ex vivo plaque forming assay relative to control; assay type: functional
[13] = Cmax in blood of OFA rat model of T-cell dependent B cell response at 3 mg/kg, po BID for 4 days starting 2 days prior to immunization and measured after 3 hrs; assay type: ADME, organism-based; parameters: route oral, dose 3 mg/kg, time 4 day
[14] = Cmax in blood of OFA rat model of T-cell dependent B cell response at 10 mg/kg, po BID for 4 days starting 2 days prior to immunization and measured after 3 hrs; assay type: ADME, organism-based; parameters: route oral, dose 10 mg/kg, time 4 day
[15] = Half life in rat at 1 mg/kg, iv via cassette dosing; assay type: ADME, organism-based; conditions: in vivo
[16] = Clearance in rat at 1 mg/kg, iv via cassette dosing; assay type: ADME, organism-based; conditions: in vivo
[17] = Clearance in Sprague-Dawley rat at 1 mg/kg, iv; assay type: ADME, organism-based; conditions: in vivo
[18] = AUC (0 to 24 hrs) in Sprague-Dawley rat at 3 mg/kg, po; assay type: ADME, organism-based; parameters: time < 24 hr, route oral, dose 3 mg/kg; conditions: in vivo
[19] = Oral bioavailability in Sprague-Dawley rat at 3 mg/kg; assay type: ADME, organism-based; conditions: in vivo
[20] = Apparent volume of distribution at steady state in Balb/C mouse at 1 mg/kg, iv; assay type: ADME, organism-based; conditions: in vivo, read-out: Vdss(app)
[21] = Terminal half life in Sprague-Dawley rat at 1 mg/kg, iv; assay type: ADME, organism-based; conditions: in vivo, read-out: beta t1/2 (converted)
[22] = Cmax in Sprague-Dawley rat at 3 mg/kg, po; assay type: ADME, organism-based; parameters: route oral, dose 3 mg/kg; conditions: in vivo
[23] = Apparent volume of distribution at steady state in Sprague-Dawley rat at 1 mg/kg, iv; assay type: ADME, organism-based; conditions: in vivo, read-out: Vdss(app)
[24] = Cmax in Balb/C mouse at 3 mg/kg, po; assay type: ADME, organism-based; parameters: route oral, dose 3 mg/kg; conditions: in vivo
[25] = Terminal half life in Balb/C mouse at 1 mg/kg, iv; assay type: ADME, organism-based; conditions: in vivo, read-out: beta t1/2 (converted)
[26] = AUC (0 to 24 hrs) in Balb/C mouse at 3 mg/kg, po; assay type: ADME, organism-based; parameters: time < 24 hr, route oral, dose 3 mg/kg; conditions: in vivo
[27] = Clearance in Balb/C mouse at 1 mg/kg, iv; assay type: ADME, organism-based; conditions: in vivo
[28] = Oral bioavailability in Balb/C mouse at 3 mg/kg; assay type: ADME, organism-based; conditions: in vivo
[29] = target: T2, Mucosa-associated lymphoid tissue lymphoma translocation protein 1 (Homo sapiens) (UniProt Q9UDY8); test: Ratio of IC50 for inhibition of MALT1 in human whole blood assessed as reduction in PMA//anti-CD28 antibody-induced IL2 level to IC50 for inhibition of MALT1 in PMA-stimulated human Jurkat T cells assessed as reduction in IL2 level; assay type: tissue-based
T2 sequence (whole entry): T1 sequence (Q9UDY8 whole entry)

[30] = Clearance in mouse; assay type: ADME, organism-based; conditions: in vivo
[31] = Clearance in rat; assay type: ADME; conditions: in vivo
[32] = target: T1, Mucosa-associated lymphoid tissue lymphoma translocation protein 1; test: Inhibition of MALT1 in human whole blood assessed as reduction in PMA//anti-CD28 antibody-induced IL2 level pre-incubated for 1 hrs before stimulation with PMA//anti-CD28 antibody by MSD assay; assay type: tissue-based

| SMILES | microsomal CLint [1] [µL/min/mg] | fraction unbound [2] | microsomal CLint [3] [µL/min/mg] | fraction unbound [4] | logP [5] | microsomal CLint [6] [µL/min/mg] | further results |
| --- | --- | --- | --- | --- | --- | --- | --- |
| O=C(Nc1cnc(-n2nccn2)c(Cl)c1)Nc1cnc2cc(Cl)nn2c1C1CC1 | 50.4 | < 0.01 | < 25 | 0.013 | 3.2 | < 25 |  |
| Cc1c(NC(=O)Nc2ccnc(C(F)(F)F)c2)cnc2cc(Cl)nn12 | < 25 |  | < 25 |  |  |  | pIC50 [7]: 6.00 |
| CC(C)c1c(NC(=O)Nc2cnc(-n3nccn3)c(Cl)c2)cnc2cc(Cl)nn12 | < 25 | < 0.01 | < 25 | < 0.01 | 4 | < 25 | inhibition in vivo at 10 mg/kg (Rattus norvegicus [8]): 96%; Cmax [9]: 3.3 µM; inhibition in vivo at 3 mg/kg (Rattus norvegicus [10]): 60%; Cmax [11]: 400 nM; ED50 (Rattus norvegicus [12]; po, 96 h, time 4 day): 3 mg/kg; Activity (Rattus norvegicus [12]; time 4.0 day): Dose-dependent effect; Cmax [13]: 1500 nM; Cmax [14]: 7.6 µM; half-life [15]: 324 min; clearance [16]: 18 mL/min/kg |
| CO[C@H](C)c1c(NC(=O)Nc2cnc(-n3nccn3)c(Cl)c2)cnc2cc(Cl)nn12 | < 25 | 0.023 |  | 0.032 |  |  |  |
| O=C(Nc1cnc(-n2nccn2)c(Cl)c1)Nc1cnc2cc(Cl)nn2c1C1CCOCC1 | 25.5 | 0.012 | < 25 | 0.023 | 3 |  |  |
| COC[C@@H](C)c1c(NC(=O)Nc2cnc(-n3nccn3)c(Cl)c2)cnc2cc(Cl)nn12 | 70.1 | 0.015 | < 25 | 0.011 | 3.4 |  |  |
| COC[C@H](C)c1c(NC(=O)Nc2cnc(-n3nccn3)c(Cl)c2)cnc2cc(Cl)nn12 | 60.9 | 0.014 | 81.4 | 0.012 | 3.4 | < 25 |  |
| COCc1c(NC(=O)Nc2cnc(-n3nccn3)c(Cl)c2)cnc2cc(Cl)nn12 | < 25 | 0.019 | < 25 | 0.035 | 3 |  |  |
| CC(C)c1c(NC(=O)Nc2ccnc(C(F)(F)F)c2)cnc2cc(Cl)nn12 | < 25 |  | 61 |  |  |  |  |
| CO[C@@H](C)c1c(NC(=O)Nc2ccnc(C(F)(F)F)c2)cnc2cc(Cl)nn12 | < 25 | 0.038 | < 25 | 0.027 |  | < 25 | clearance [17]: 9 mL/min/kg; AUC [18]: 13.4 µM·h; bioavailability [19]: 86%; Vd [20]: 3 L/kg; half-life [21]: 576 min; Cmax [22]: 700 nM; Vd [23]: 5.3 L/kg; Cmax [24]: 500 nM; half-life [25]: 72 min; AUC [26]: 2.3 µM·h; clearance [27]: 28 mL/min/kg; bioavailability [28]: 50% |
| C[C@H]1COC[C@H](C)N1c1c(NC(=O)Nc2ccnc(C(F)(F)F)c2)cnc2cc(Cl)nn12 |  |  | 114 |  |  |  | Ratio IC50 [29]: 50; clearance [30]: 15 mL/min/kg; clearance [31]: 25 mL/min/kg; pIC50 [32]: 5.05; half-life [15]: 198 min; clearance [16]: 46 mL/min/kg |
